Data from the supplement of paper PMC10307832.

Assays:
Assay in all cases: relative viability (nuclei count vs DMSO), 5 days (fraction); higher = more cells survive
[1] = compound: C1=CC(=CC=C1C2=CC(=C(S2)NC(=O)N)C(=O)N)F [TPCA-1] + Nc1nc2[nH]cc(CCc3ccc(C(=O)N[C@@H](CCC(=O)O)C(=O)O)cc3)c2c(=O)[nH]1 [Pemetrexed] (partner 0.2 µM)
How it was run: (§1)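 Five library-drug doses in √10 steps were combined with a fixed anchor-drug dose, or a single drug was given alone, by pin tool to lung cancer cell lines in 1536-well plates the day after seeding. Nuclei were stained and counted after 5 days. Relative viability is the nuclei count in treated wells over that in vehicle wells, taken as the median of duplicate plates.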

[2] = compound: C1/C(=C\C2=CC=CS2)/C(=O)/C(=C/C3=CC=CS3)/C1 + O=C(c1cc(Cc2n[nH]c(=O)c3ccccc23)ccc1F)N1CCN(C(=O)C2CC2)CC1 [Olaparib] (partner 8 µM)
How it was run: as §1

[3] = compound: C1=CC(=CC=C1C2=CC(=C(S2)NC(=O)N)C(=O)N)F [TPCA-1] + O=C(c1cc(Cc2n[nH]c(=O)c3ccccc23)ccc1F)N1CCN(C(=O)C2CC2)CC1 [Olaparib] (partner 8 µM)
How it was run: as §1

[4] = compound: C1=CC(=CC=C1C2=CC(=C(S2)NC(=O)N)C(=O)N)F [TPCA-1] + N=C(N)NC(=N)NCCc1ccccc1 [Phenformin] (partner 250 µM)
How it was run: as §1

Cell Line	relative viability ([1]; first compound 0.4 µM)	relative viability ([1]; first compound 1.265 µM)	relative viability ([1]; first compound 4 µM)	relative viability ([2]; first compound 0.2 µM)	relative viability ([2]; first compound 0.6325 µM)	relative viability ([2]; first compound 2 µM)	relative viability ([2]; first compound 6.325 µM)	relative viability ([2]; first compound 20 µM)	relative viability ([3]; first compound 0.4 µM)	relative viability ([3]; first compound 1.265 µM)	relative viability ([3]; first compound 4 µM)	relative viability ([4]; first compound 0.04 µM)	relative viability ([4]; first compound 0.1265 µM)	relative viability ([4]; first compound 0.4 µM)	relative viability ([4]; first compound 1.265 µM)	relative viability ([4]; first compound 4 µM)	relative viability ([1]; first compound 0.04 µM)	relative viability ([1]; first compound 0.1265 µM)	relative viability ([3]; first compound 0.04 µM)	relative viability ([3]; first compound 0.1265 µM)
SW 900	0.492	0.495	0.468	0.752	0.839	0.87	0.882	0.99	0.894	0.935	0.644	0.79	0.577	0.518	0.395	0.529				
NCI-H1944	0.705	0.589	0.487	0.435	0.385	0.392		0.41	0.436	0.425	0.336	0.238	0.202	0.217	0.176	0.189	0.631	0.466	0.482	0.424
NCI-H727				0.803	0.627	0.755		0.697	0.666	0.57	0.534	0.673	0.417	0.488	0.389	0.479			0.86	0.69
NCI-H1650	0.424	0.358	0.365	0.854	0.793	0.734	0.69	0.717	0.758	0.822	0.863	0.452		0.487	0.469	0.386	0.382	0.369	0.893	0.826
HCC-827	0.281	0.256	0.276	0.589	0.582	0.72	0.646	0.597	0.772	0.609	0.367	0.384	0.385	0.404	0.367	0.353	0.252	0.267	0.678	0.62
HCC-366	0.155	0.116	0.145	0.382	0.35	0.41	0.269	0.353	0.37	0.348	0.239	0.727	0.617	0.652	0.673	0.098		0.17		0.304
HARA	0.226	0.198	0.223	1.11	0.862	0.944	0.716	0.83	1.09	0.742	0.656	0.476	0.45	0.469	0.484	0.162	0.242	0.226	0.884	0.765
NCI-H322M	0.57	0.566	0.497	0.827	0.776	0.822	0.783	0.762	0.77	0.73	0.41	0.922	0.7	0.797	0.795	0.375	0.614	0.481	0.78	0.785
LXF-289	0.903	0.877	0.535	1.06	1.07	1.06	0.936	1.02	1.12	1.06	0.735	0.551	0.489	0.532	0.447	0.308	0.883	0.869	1.09	0.94
PC-3 [JPC-3]	1.22	1.09	0.535		1.22	1.09	0.762	1.19	1.11	1.05	1	0.461	0.461	0.484	0.486	0.468	1.17	1.03	1.19	1.17
CAL-12T	1.17	1.09	0.828	0.691	0.749	0.742	0.648	0.733	0.732	0.638	0.753	0.622	0.51	0.612	0.51	0.172	1.12	0.968	0.621	0.734
COR-L 105	1.23	1.03	0.777	0.753	0.757	0.646	0.434	0.618	0.665	0.752	0.697	0.471	0.406	0.448	0.368	0.323	1.02	0.931	0.712	0.7
NCI-H2347	0.417	0.385	0.424	0.623	0.581	0.593	0.521	0.63	0.607	0.578	0.545	0.652	0.331	0.451	0.262	0.264	0.385	0.419	0.565	0.54
NCI-H2126	0.679	0.508	0.524	0.951	0.926	0.883	0.882	0.85	0.911	0.875	0.88	0.561	0.499	0.53	0.537	0.44	0.636	0.607	0.951	0.924
NCI-H838	0.259	0.264	0.294	0.779	0.752	0.704	0.714	0.739	0.826	0.557	0.406	0.612	0.516	0.672	0.367	0.288	0.25	0.225	0.867	0.718
A549				0.352	0.283	0.642	0.286	0.354	0.507	0.201	0.0946	0.206	0.162	0.151	0.141	0.0882			0.342	0.313
NCI-H2342	0.778	0.609	0.584	0.392	0.464	0.454	0.419	0.435	0.44	0.423	0.325	0.612	0.538	0.574	0.504	0.47	0.821	0.709	0.487	0.351
